Experiment: Cytotoxicity against mouse P388 cells after 3 days by MTT assay
Assay type: functional, cell-based
Details: P388, 72 h
With CC/C=C1/NC(=O)/C=C/[C@H](C(C)C)OC(=O)C(C)(C)[C@H](C[C@H](/C=C/C=C/C/C=C\CCC(C)C)OC)OC(=O)CNC(=O)[C@H](CNC(N)=O)NC(=O)CNC(=O)[C@@H](CCCNC(N)=O)NC1=O the IC50 was 36 µM. Compound CC/C=C1/NC(=O)/C=C/[C@H](C(C)C)OC(=O)C(C)(C)[C@H](C[C@H](/C=C/C=C/C/C=C\CCCC)OC)OC(=O)CNC(=O)[C@H](CNC(N)=O)NC(=O)CNC(=O)[C@@H](CCCNC(=O)NS(=O)(=O)O)NC1=O has an IC50 of 30 µM. With CC/C=C1/NC(=O)/C=C/[C@H]([C@@H](C)CC)OC(=O)C(C)(C)[C@H](C[C@H](/C=C/C=C/C/C=C\CCC(C)C)OC)OC(=O)CNC(=O)[C@H](CNC(N)=O)NC(=O)CNC(=O)[C@@H](CCCNC(=O)NS(=O)(=O)O)NC1=O the IC50 was 29 µM. Compound CC/C=C1/NC(=O)/C=C/[C@H](C(C)C)OC(=O)C(C)(C)[C@H](C[C@H](/C=C/C=C/C/C=C\CCC(C)C)OC)OC(=O)CNC(=O)[C@H](CNC(N)=O)NC(=O)CNC(=O)[C@@H](CCCNC(=O)NS(=O)(=O)O)NC1=O has an IC50 of 15 µM.
